The text below walks through data of ChEMBL document CHEMBL4304811, “Development of a Water-Soluble Indolylmaleimide Derivative IM-93 Showing Dual Inhibition of Ferroptosis and NETosis” (ACS Med Chem Lett, 2019).

Structures are written as SMILES.

Test [1] has as its target Phosphatidylinositol 5-phosphate 4-kinase type-2 gamma (Homo sapiens) (UniProt Q8TBX8). The experiment in a line: Binding affinity to wild-type human partial length PIP5K2C (M1 to A421 residues) expressed in mammalian expression system assessed as residual binding level at 10 uM by Kinomescan method relative to control.
The target in test [2] is Serine/threonine-protein kinase MRCK gamma (Homo sapiens) (UniProt Q6DT37). Nature of the test: Binding affinity to wild-type human partial length DMPK2 (S46 to S408 residues) expressed in bacterial expression system assessed as residual binding level at 10 uM by Kinomescan method relative to control.
Test [3] has as its target Serine/threonine-protein kinase SIK2 (Homo sapiens) (UniProt Q9H0K1). The experiment in a line: Binding affinity to wild-type human full length SIK2 (M1 to N926 residues) expressed in bacterial expression system assessed as residual binding level at 10 uM by Kinomescan method relative to control.
Test [4] concerns the target Serine/threonine-protein kinase 10 (Homo sapiens) (UniProt O94804). Nature of the test: Binding affinity to wild-type human partial length LOK (E16 to V314 residues) expressed in bacterial expression system assessed as residual binding level at 10 uM by Kinomescan method relative to control.
The target in test [5] is Mitogen-activated protein kinase 14 (Homo sapiens) (UniProt Q16539). Nature of the test: Binding affinity to wild-type human full length p38-alpha (M1 to S360 residues) expressed in bacterial expression system assessed as residual binding level at 10 uM by Kinomescan method relative to control.
Test [6] deals with Serine/threonine-protein kinase NIM1 (Homo sapiens) (UniProt Q8IY84). Nature of the test: Binding affinity to wild-type human partial length NIM1 (Q44 to N355 residues) expressed in mammalian expression system assessed as residual binding level at 10 uM by Kinomescan method relative to control.
Test [7] deals with Serine/threonine-protein kinase PLK3 (Homo sapiens) (UniProt Q9H4B4). Nature of the test: Binding affinity to wild-type human partial length PLK3 (A42 to L334 residues) expressed in mammalian expression system assessed as residual binding level at 10 uM by Kinomescan method relative to control.
Test [8] addresses Receptor-interacting serine/threonine-protein kinase 1 (Homo sapiens) (UniProt Q13546). Nature of the test: Binding affinity to wild-type human partial length RIPK1 (M1 to K305 residues) expressed in bacterial expression system assessed as residual binding level at 10 uM by Kinomescan method relative to control.
Test [9] deals with Mast/stem cell growth factor receptor Kit (Homo sapiens) (UniProt P10721). The experiment in a line: Binding affinity to wild-type human partial length KIT (I571 to D952 residues) expressed in bacterial expression system assessed as residual binding level at 10 uM by Kinomescan method relative to control.
The target of test [10] is Mitogen-activated protein kinase kinase kinase kinase 4 (Homo sapiens) (UniProt O95819). Nature of the test: Binding affinity to wild-type human partial length MAP4K4 (M1 to R310 residues) expressed in bacterial expression system assessed as residual binding level at 10 uM by Kinomescan method relative to control.
The target of test [11] is cGMP-dependent protein kinase 1 (Homo sapiens) (UniProt Q13976). Nature of the test: Binding affinity to wild-type human partial length PRKG1 (L339 to F686 residues) expressed in bacterial expression system assessed as residual binding level at 10 uM by Kinomescan method relative to control.
The target in test [12] is MAP/microtubule affinity-regulating kinase 4 (Homo sapiens) (UniProt Q96L34). The experiment in a line: Binding affinity to wild-type human partial length MARK4 (K29 to G340 residues) expressed in bacterial expression system assessed as residual binding level at 10 uM by Kinomescan method relative to control.
The target in test [13] is Phosphorylase b kinase gamma catalytic chain, liver/testis isoform (Homo sapiens) (UniProt P15735). The experiment in a line: Binding affinity to wild-type human partial length PHKG2 (M1 to W300 residues) expressed in bacterial expression system assessed as residual binding level at 10 uM by Kinomescan method relative to control.
The target in test [14] is AP2-associated protein kinase 1 (Homo sapiens) (UniProt Q2M2I8). Nature of the test: Binding affinity to wild-type human partial length AAK1 (G25 to L333 residues) expressed in bacterial expression system assessed as residual binding level at 10 uM by Kinomescan method relative to control.
In test [15] the target is Protein kinase C iota type (Homo sapiens) (UniProt P41743). Nature of the test: Binding affinity to wild-type human partial length PRKCI (H215 to V587 residues) expressed in mammalian expression system assessed as residual binding level at 10 uM by Kinomescan method relative to control.
Test [16] addresses Insulin receptor-related protein (Homo sapiens) (UniProt P14616). Nature of the test: Binding affinity to wild-type human partial length INSRR (R950 to E1278 residues) expressed in bacterial expression system assessed as residual binding level at 10 uM by Kinomescan method relative to control.
Test [17] concerns the target Ribosomal protein S6 kinase alpha-5 (Homo sapiens) (UniProt O75582). Nature of the test: Binding affinity to wild-type human partial length N- terminal RPS6KA5 kinase domain 1 expressed in bacterial expression system assessed as residual binding level at 10 uM by Kinomescan method relative to control.
In test [18] the target is Tyrosine-protein kinase ABL1 (Homo sapiens) (UniProt P00519). Nature of the test: Binding affinity to wild-type human non-phosphorylated ABL1 (S229 to K512 residues) expressed in mammalian expression system assessed as residual binding level at 10 uM by Kinomescan method relative to control.
Test [19] has as its target Homeodomain-interacting protein kinase 2 (Homo sapiens) (UniProt Q9H2X6). Nature of the test: Binding affinity to wild-type human partial length HIPK2 (M153 to S564 residues) expressed in mammalian expression system assessed as residual binding level at 10 uM by Kinomescan method relative to control.
In test [20] the target is Serine/threonine-protein kinase N2 (Homo sapiens) (UniProt Q16513). The experiment in a line: Binding affinity to wild-type human partial length PKN2 (E634 to C984 residues) expressed in bacterial expression system assessed as residual binding level at 10 uM by Kinomescan method relative to control.
The target of test [21] is Cyclin-dependent kinase 7 (Homo sapiens) (UniProt P50613). Nature of the test: Binding affinity to wild-type human full length CDK7 (M1 to L344 residues) expressed in mammalian expression system assessed as residual binding level at 10 uM by Kinomescan method relative to control.
For test [22], the target named is Serine/threonine-protein kinase DCLK1 (Homo sapiens) (UniProt O15075). Nature of the test: Binding affinity to wild-type human partial length DCAMKL1 (L270 to A662 residues) expressed in mammalian expression system assessed as residual binding level at 10 uM by Kinomescan method relative to control.
Test [23] relates to Phosphatidylinositol 4,5-bisphosphate 3-kinase catalytic subunit alpha isoform (Homo sapiens), P42336 [H1047L]. Nature of the test: Binding affinity to human partial length PIK3CA H1047L mutant (R108 to N1068 residues) expressed in mammalian expression system assessed as residual binding level at 10 uM by Kinomescan method relative to control.
Test [24] addresses Serine/threonine-protein kinase TNNI3K (Homo sapiens) (UniProt Q59H18). Nature of the test: Binding affinity to wild-type human full length TNNI3K (M1 to S835 residues) expressed in bacterial expression system assessed as residual binding level at 10 uM by Kinomescan method relative to control.

cGMP-dependent protein kinase 1 (Homo sapiens), sequence (Q13976 whole entry, the tested form may be a part): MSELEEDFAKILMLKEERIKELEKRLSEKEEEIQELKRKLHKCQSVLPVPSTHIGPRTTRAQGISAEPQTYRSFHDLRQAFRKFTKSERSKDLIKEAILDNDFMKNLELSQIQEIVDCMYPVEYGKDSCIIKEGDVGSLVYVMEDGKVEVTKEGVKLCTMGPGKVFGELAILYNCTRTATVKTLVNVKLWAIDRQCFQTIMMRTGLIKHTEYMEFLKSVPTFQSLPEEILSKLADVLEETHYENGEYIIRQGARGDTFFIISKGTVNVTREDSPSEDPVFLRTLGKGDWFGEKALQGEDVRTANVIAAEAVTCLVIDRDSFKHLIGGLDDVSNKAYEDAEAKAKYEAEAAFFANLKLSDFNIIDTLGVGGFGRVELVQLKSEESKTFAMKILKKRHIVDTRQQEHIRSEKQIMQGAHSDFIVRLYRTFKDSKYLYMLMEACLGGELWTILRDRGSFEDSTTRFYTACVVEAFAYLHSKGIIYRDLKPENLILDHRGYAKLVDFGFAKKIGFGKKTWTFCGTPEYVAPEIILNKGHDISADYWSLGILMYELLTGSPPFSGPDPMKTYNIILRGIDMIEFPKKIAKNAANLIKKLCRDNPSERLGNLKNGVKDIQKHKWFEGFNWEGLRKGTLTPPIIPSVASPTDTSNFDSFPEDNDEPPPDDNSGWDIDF
Serine/threonine-protein kinase TNNI3K (Homo sapiens), sequence (Q59H18 whole entry, the tested form may be a part): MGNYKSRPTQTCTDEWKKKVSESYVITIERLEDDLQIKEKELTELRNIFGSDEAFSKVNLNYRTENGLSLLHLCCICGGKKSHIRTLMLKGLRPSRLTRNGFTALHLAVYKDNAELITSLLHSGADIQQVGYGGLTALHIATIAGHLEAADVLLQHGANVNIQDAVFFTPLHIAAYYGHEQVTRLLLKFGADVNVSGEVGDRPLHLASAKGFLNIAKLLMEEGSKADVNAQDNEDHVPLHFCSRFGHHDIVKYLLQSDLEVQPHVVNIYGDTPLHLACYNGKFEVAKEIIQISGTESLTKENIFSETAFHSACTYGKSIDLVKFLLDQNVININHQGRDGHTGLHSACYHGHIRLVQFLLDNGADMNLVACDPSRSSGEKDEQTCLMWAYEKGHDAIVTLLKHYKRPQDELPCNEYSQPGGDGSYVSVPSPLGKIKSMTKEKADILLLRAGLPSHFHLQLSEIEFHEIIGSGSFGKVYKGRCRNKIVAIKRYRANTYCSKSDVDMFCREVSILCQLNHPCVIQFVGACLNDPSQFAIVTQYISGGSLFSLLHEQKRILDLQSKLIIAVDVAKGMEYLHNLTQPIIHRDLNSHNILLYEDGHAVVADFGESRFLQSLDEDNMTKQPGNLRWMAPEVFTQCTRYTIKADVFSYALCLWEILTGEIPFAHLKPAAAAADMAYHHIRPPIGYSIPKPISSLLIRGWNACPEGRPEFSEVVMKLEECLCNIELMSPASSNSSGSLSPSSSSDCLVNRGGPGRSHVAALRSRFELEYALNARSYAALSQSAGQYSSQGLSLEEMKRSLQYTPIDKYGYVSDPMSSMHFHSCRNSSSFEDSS
AP2-associated protein kinase 1 (Homo sapiens), sequence (Q2M2I8 whole entry, looked up, the tested form may be a part): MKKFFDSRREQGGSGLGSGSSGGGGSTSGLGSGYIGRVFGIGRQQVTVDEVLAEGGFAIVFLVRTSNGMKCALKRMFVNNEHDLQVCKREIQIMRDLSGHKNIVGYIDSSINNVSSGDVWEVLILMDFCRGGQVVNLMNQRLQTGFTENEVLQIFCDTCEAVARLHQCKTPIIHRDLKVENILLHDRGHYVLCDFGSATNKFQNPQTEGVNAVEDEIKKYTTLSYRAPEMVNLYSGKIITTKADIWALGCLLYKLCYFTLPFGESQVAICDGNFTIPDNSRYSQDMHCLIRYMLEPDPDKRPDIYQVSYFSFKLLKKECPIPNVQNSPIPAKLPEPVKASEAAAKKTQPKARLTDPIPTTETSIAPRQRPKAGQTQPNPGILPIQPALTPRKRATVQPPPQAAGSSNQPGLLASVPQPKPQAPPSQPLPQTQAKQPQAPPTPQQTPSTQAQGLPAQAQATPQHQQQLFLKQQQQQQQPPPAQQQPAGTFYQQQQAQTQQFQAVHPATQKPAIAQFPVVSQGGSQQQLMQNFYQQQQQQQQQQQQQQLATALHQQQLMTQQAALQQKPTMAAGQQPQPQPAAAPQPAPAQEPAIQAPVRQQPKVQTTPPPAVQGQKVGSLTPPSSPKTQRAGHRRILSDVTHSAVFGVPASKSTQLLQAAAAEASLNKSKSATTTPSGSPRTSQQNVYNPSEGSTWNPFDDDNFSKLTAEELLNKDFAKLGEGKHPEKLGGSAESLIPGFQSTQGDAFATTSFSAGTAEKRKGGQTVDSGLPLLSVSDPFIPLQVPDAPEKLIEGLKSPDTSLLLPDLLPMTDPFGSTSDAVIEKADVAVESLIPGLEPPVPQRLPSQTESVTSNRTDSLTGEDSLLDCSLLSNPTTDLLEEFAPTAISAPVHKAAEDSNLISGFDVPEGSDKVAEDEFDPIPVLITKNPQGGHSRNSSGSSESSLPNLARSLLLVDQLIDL
Ribosomal protein S6 kinase alpha-5 (Homo sapiens), sequence (O75582 whole entry, looked up, the tested form may be a part): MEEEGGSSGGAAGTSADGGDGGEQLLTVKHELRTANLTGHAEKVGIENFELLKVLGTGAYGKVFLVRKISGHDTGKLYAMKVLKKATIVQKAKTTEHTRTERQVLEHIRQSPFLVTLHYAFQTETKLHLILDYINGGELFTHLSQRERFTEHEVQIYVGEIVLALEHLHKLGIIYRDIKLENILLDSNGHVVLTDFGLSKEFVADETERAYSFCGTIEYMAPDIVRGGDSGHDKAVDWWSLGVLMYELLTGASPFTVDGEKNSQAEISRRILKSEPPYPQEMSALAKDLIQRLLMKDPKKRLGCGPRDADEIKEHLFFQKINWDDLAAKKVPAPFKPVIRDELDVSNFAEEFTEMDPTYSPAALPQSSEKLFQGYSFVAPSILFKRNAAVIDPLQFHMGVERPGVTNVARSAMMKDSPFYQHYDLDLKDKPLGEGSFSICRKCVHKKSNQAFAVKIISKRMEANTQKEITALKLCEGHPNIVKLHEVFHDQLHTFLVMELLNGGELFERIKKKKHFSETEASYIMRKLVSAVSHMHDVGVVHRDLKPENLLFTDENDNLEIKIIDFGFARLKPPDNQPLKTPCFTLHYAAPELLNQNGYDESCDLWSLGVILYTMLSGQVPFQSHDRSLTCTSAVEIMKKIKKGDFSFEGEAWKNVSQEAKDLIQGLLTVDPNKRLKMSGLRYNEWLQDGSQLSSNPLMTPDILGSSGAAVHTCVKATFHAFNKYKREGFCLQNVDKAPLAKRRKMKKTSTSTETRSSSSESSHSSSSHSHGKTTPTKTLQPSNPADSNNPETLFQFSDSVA
Mitogen-activated protein kinase 14 (Homo sapiens), sequence (Q16539 whole entry, the tested form may be a part): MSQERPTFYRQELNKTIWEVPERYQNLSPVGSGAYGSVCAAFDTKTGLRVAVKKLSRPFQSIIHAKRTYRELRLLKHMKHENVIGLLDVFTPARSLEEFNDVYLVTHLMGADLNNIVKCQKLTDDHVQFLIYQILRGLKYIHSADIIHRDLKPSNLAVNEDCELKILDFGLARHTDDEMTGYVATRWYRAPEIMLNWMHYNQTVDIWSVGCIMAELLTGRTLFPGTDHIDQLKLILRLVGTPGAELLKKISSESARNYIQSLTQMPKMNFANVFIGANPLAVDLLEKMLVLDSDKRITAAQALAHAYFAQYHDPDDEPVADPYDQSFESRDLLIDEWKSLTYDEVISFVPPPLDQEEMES
Phosphatidylinositol 5-phosphate 4-kinase type-2 gamma (Homo sapiens), sequence (Q8TBX8 whole entry, the tested form may be a part): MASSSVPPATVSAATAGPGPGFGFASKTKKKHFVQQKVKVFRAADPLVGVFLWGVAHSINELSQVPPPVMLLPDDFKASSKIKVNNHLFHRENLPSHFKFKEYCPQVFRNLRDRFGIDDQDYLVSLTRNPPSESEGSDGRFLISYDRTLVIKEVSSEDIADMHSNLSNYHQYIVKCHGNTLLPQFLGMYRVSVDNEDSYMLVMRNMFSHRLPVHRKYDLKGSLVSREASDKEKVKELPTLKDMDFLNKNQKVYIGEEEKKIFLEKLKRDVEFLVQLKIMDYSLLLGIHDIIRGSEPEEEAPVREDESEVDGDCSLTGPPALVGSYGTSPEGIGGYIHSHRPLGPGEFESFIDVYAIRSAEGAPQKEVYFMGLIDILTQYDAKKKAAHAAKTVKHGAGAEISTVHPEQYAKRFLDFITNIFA
Serine/threonine-protein kinase 10 (Homo sapiens), sequence (O94804 whole entry, looked up, the tested form may be a part): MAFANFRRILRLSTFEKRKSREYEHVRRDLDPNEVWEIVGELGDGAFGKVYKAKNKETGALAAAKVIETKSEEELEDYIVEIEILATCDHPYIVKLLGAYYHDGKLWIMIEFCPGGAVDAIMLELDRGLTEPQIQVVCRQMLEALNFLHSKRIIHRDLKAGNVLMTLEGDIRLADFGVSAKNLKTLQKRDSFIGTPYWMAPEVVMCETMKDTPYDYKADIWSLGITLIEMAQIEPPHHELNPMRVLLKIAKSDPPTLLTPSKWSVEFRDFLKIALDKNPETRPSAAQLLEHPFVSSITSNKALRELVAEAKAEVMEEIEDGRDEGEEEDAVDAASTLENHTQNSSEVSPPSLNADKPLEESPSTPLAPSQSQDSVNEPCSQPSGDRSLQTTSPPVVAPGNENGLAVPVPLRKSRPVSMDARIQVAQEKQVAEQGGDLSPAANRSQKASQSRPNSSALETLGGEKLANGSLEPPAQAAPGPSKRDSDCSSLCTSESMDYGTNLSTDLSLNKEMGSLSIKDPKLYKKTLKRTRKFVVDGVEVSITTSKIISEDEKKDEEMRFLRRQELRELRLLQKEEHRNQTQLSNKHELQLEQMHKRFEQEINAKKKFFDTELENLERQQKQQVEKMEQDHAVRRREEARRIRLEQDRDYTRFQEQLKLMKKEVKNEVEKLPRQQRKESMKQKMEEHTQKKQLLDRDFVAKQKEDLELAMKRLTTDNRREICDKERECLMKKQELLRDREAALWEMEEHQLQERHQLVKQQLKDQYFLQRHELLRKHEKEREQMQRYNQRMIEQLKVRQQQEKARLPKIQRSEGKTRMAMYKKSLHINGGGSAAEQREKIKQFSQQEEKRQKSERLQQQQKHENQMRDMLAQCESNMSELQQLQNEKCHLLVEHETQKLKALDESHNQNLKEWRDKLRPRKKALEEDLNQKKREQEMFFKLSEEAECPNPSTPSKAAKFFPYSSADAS

For the compound `CC(C)N1C(=O)C(NCCCN(C)C)=C(c2cn(C)c3ccccc23)C1=O.Cl`, the Activity in test [1] was found to be 83%; in [2], 93%; in test [3] it was 100%; in test [4] it was 88%; in test [5], 100%; in test [6], 90%. The Activity was 100% in test [7]; 96% in [8]; 99% in test [9]; 95% in [10]; 91% in [11]; 64% in [12]. Further, the Activity was 100% in [13]; 100% in [14]; 88% in test [15]; 95% in test [16]; 97% in test [17]; 84% in test [18]. In addition, the Activity was found to be 100% in test [19]; 95% in [20]; 80% in [21]; 94% in test [22]; 78% in test [23]; 100% in test [24].
